Source: patent US20260234180A1, “AMINO ACID DERIVATIVE, PREPARATION METHOD THEREFOR, AND PHARMACEUTICAL COMPOSITION FOR TREATING HEPATITIS, COMPRISING SAME” (priority 2021, published 2026)

Molecular target: T1, NTCP (Na+ taurocholate cotransporting peptide), HepG2-hNTCP-C4 cell line (Homo sapiens, UniProt Q14973)
T1 construct: expressed in transfected cells; host or cells: HepG2-hNTCP-C4 (HepG2 cells expressing human NTCP)
T1 sequence (Q14973 1-349): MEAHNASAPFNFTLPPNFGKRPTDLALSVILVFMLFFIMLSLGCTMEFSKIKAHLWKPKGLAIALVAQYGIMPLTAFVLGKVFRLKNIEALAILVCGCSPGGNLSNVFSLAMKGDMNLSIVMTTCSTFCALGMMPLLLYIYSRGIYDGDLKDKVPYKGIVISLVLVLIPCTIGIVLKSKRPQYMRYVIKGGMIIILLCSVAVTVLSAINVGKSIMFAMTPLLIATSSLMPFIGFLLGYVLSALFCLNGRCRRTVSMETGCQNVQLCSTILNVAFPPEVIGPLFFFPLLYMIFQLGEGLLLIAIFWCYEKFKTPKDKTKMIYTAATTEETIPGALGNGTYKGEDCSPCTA
Experiment: Inhibition of binding between FITC-labelled PreS1 and NTCP expressing cell line, flow cytometry
Conditions: for effect of inhibiting the binding between PreS1 and NTCP expressing cell lines by treatment concentration: 0.2 μM, 2 μM, 10 μM, 50 μM; for effect of inhibiting the binding between PreS1 and NTCP expressing cell lines by treatment concentration / ability to inhibit the binding between PreS1 and NTCP expressing cell lines (bile acid series): 20 nM PreS1; for ability to inhibit the binding between PreS1 and NTCP expressing cell lines (bile acid series) / relative fluorescence intensity compared to Comparative Example 1 (LCA): compound 50 µM; for relative fluorescence intensity compared to Comparative Example 1 (LCA): 20 nM PreS1, 4° C., 2 hours, lower = more inhibited binding
Summary of the method: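 HepG2-hNTCP-C4 cells were pre-chilled at 4 °C for 30 min, then exposed to 20 nM Myr-PreS1-Lys(FITC) plus compound at 4 °C for 2 h, mostly at 50 μM, with some series at 0.2–50 μM or 2–50 μM. After washes and EDTA detachment, cell-bound green fluorescence was read by flow cytometry.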

Structure (SMILES) | effect of inhibiting the binding between PreS1 and NTCP expressing cell lines by treatment concentration | ability to inhibit the binding between PreS1 and NTCP expressing cell lines (bile acid series) | relative fluorescence intensity compared to Comparative Example 1 (LCA)
CC[C@@H](C)[C@H](NC(=O)CC[C@@H](C)[C@H]1CC[C@H]2[C@@H]3CC[C@@H]4C[C@H](O)CC[C@]4(C)[C@H]3CC[C@]12C)C(=O)O [Example 1, (2S,3R)-2-((R)-4-((3R,5R,8R,9S,10S,13R,14S,17R)-3-hydroxy-10,13-dimethyl-hexadecahydro-1H-cyclopenta[a]phenanthren-17-yl)pentanamido)-3-methylpentanoic acid] | concentration dependent | relatively excellent | low and lower
CC(C)[C@H](NC(=O)CC[C@@H](C)[C@H]1CC[C@H]2[C@@H]3CC[C@@H]4C[C@H](O)CC[C@]4(C)[C@H]3CC[C@]12C)C(=O)O [Example 44, (S)-2-((R)-4-((3R,5R,8R,9S,10S,13R,14S,17R)-3-hydroxy-10,13-dimethyl-hexadecahydro-1H-cyclopenta[a]phenanthren-17-yl)pentanamido)-3-methylbutanoic acid] | concentration dependent | relatively excellent | low and lower
CC(C)[C@H](NC(=O)CC[C@@H](C)[C@H]1CC[C@H]2[C@@H]3[C@@H](O)C[C@@H]4C[C@H](O)CC[C@]4(C)[C@H]3CC[C@]12C)C(=O)O [Example 3, (S)-2-((R)-4-((3R,5S,7S,8R,9S,10S,13R,14S,17R)-3,7-dihydroxy-10,13-dimethyl-hexadecahydro-1H-cyclopenta[a]phenanthren-17-yl)pentanamido)-3-methylbutanoic acid] | – | relatively excellent | –
CC[C@@H](C)[C@H](NC(=O)CC[C@@H](C)[C@H]1CC[C@H]2[C@@H]3[C@@H](O)C[C@@H]4C[C@H](O)CC[C@]4(C)[C@H]3CC[C@]12C)C(=O)O [Example 2, (2S,3R)-2-((R)-4-((3R,5S,7S,8R,9S,10S,13R,14S,17R)-3,7-dihydroxy-10,13-dimethyl-hexadecahydro-1H-cyclopenta[a]phenanthren-17-yl)pentanamido)-3-methylpentanoic acid] | – | relatively excellent | –
CC[C@@H](C)[C@H](NC(=O)CC[C@@H](C)[C@H]1CC[C@H]2[C@@H]3CC[C@@H]4C[C@H](O)CC[C@]4(C)[C@H]3C[C@H](O)[C@]12C)C(=O)O [Example 10, (2S,3R)-2-((R)-4-((3R,5R,8R,9S,10S,12S,13R,14S,17R)-3,12-dihydroxy-10,13-dimethyl-hexadecahydro-1H-cyclopenta[a]phenanthren-17-yl)pentanamido)-3-methylpentanoic acid] | – | relatively excellent | –
